Legend:
GFAP = GFAP staining in cortex, striatum and substantia nigra, α-synuclein injection model; type: in vivo, C57BL/6 mice; details: PFF-fexofenadine group vs PFF-PBS; 20 mg/kg orally once a day; day 30
Procedure: The skin was sutured, and the animal was removed from the stereotaxic apparatus and placed on a heating pad for 30 minutes.

Iba-1 positive microglia = experiment: Microglial (Iba-1) staining in substantia nigra and striatum, 6-OHDA model; type: in vivo, C57BL/6 mice; details: 6-OHDA+fexofenadine group; 20 mg/kg orally once a day; 21 days after 6-OHDA injection
Procedure: Specifically, 8-week-old C57BL/6 mice (Daehan Biolink, Eumseong, North Chungcheong Province, Korea) were anesthetized by intraperitoneal (i.p.) injection of 200 mg/kg of 2,2,2-tribromoethanol (Sigma-Aldrich), and they were placed in a stereotaxic apparatus (David Kopf Instruments, Tujunga, CA, USA) equipped With a mouse adapter.
Activated microglia were analyzed through staining with anti-Iba-1 antibody (Wako, 019-19741, 1:1,000 dilution). The brain tissue preparation and tissue staining method for this purpose were performed in the same manner as the TH staining method in Example 3-1, and the images were analyzed using an Axio scan. Z1 slide scanner (Carl Zeiss, Germany). The cell number was measured and analyzed as the average value of three sheets of each tissue.

[1] = test system: BIFC-α-syn C. elegans Parkinson's disease model; experiment: Life-span analysis; type: in vivo
From the text: (§1) For this purpose, A C. elegans Parkinson's disease model (Venus-αS) expressing BiFC-α-syn was produced by introducing plasmids that overexpress VN-linked α-synuclein in muscle cells of the pharynx and VC-linked α-synuclein in neurons that form synapses with muscle cells into wild-type Bristol N2 C. elegans purchased from the Caenorhabditis Genetics Center (CGC, University of Minnesota, St. Paul, MN) (Kim D-K et al., (2016). Autophagy. 12(10):1849-1863).
For this purpose, eggs laid by adults were grown to the L4 larval stage on NGM plates inoculated with K col. OP50 (CGC) at 20° C. When the L4 stage was reached, they were transferred to NGM plates including […] 5-fluoro-2′-deoxyuridine (Sigma-Aldrich, F0503) to prevent progeny production. The number of living and dead C. elegans was recorded every 1 or 2 days. Worms that burst, were buried or crawled out of the plate were also counted. Survival data were analyzed using OASIS2 (Survival Analysis Online Application for Lifespan Analysis http://sbi.postech.ac.kr/oasis/surv/).

[2] = test system: Parkinson's disease model (6-OHDA model) mice; experiment: Cylinder test; type: in vivo, C57BL/6 mice; details: 6-OHDA+fexofenadine group; 20 mg/kg orally once a day
Procedure: (§2) Specifically, 8-week-old C57BL/6 mice (Daehan Biolink, Eumseong, North Chungcheong Province, Korea) were anesthetized by intraperitoneal (i.p.) injection of 200 mg/kg of 2,2,2-tribromoethanol (Sigma-Aldrich), and they were placed in a stereotaxic apparatus (David Kopf Instruments, Tujunga, CA, USA) equipped With a mouse adapter. Using a Hamilton syringe (Hamilton, Bonaduz, Switzerland), 2 μL of 6-OHDA-HCl solution (2 mg/mL) (Sigma Aldrich) in 0.02% ascorbic acid was injected into the right striatum at the following stereotactic coordinates (mm from the bregma): IP+1.0; ML-1.8; DV −3.2. The skin was sutured, and the animal was removed from the stereotaxic apparatus and placed on a heating pad for 30 minutes. Normal control mice for the diseased mouse model were injected with a vehicle (0.02% ascorbic acid) instead of 6-OHDA-HCl solution.
(§3) Behavioral experiments were performed 18 days after 6-01-IDA injection, and mice were sacrificed 21 days after 6-01-IDA injection, and histological analysis was performed.

[3] = test system: Parkinson's disease model (6-OHDA model) mice; experiment: Pole test (landing time); type: in vivo, C57BL/6 mice; details: 20 mg/kg orally once a day
Procedure: as §2, §3
The mouse was placed on a bar with a diameter of 8 mm and a length of 55 cm, and a pole test was performed to measure the time it took for the mouse's four feet to come down to the floor (landing time).

α-synuclein aggregates = experiment: BiFC-α-syn Venus fluorescence in C. elegans Parkinson's disease model; type: in vivo; details: Venus-αS C. elegans; fexofenadine, 2 days at 20° C.; vs control not treated
From the text: as §1

[4] = test system: BIFC-α-syn C. elegans Parkinson's disease model; experiment: Pharyngeal pumping analysis; type: in vivo
From the text: as §1

TH-positive neurons = details: 6-OHDA+fexofenadine group; 20 mg/kg orally once a day; 21 days after 6-OHDA injection
Procedure: as §2, §3

[5] = test system: Parkinson's disease model (6-OHDA model) mice; experiment: Bridge test (acrossing time on a 1 m bar); type: in vivo, C57BL/6 mice; details: 20 mg/kg orally once a day
Procedure: as §2, §3
In order to test the animal model's sense of balance, a bridge test was performed to measure the time it took to pass from one side to the other side on a 1 m long bar (acrossing time).

[6] = C. elegans wild-type N2 treated with fexofenadine
[7] = 6-OHDA+fexofenadine group, 18 days after 6-OHDA injection
[8] = normal mice (PBS-fexofenadine group)

CC(C)(C(=O)O)c1ccc(C(O)CCCN2CCC(C(O)(c3ccccc3)c3ccccc3)CC2)cc1 (stereo not shown) [fexofenadine]
GFAP expression in the cortex, striatum and substantia nigra, ipsilateral and contralateral sides (GFAP): significantly reduced
number of Iba-1 positive microglia in the ipsilateral side of the striatum and substantia nigra (Iba-1 positive microglia): reduced to a level similar to that of the normal mouse control group
lifespan [1, 6]: further extended
lifespan ([1]; fexofenadine-treated C. elegans Parkinson's disease model): about 14 days
motor ability (steps of forepaw opposite the damaged striatum vs undamaged) [2]: restored to the level of the normal mouse control group
landing time [3, 7]: about 6 seconds
landing time [3, 8]: approximately 4.5 seconds
Venus fluorescence intensity (α-synuclein aggregates): significantly reduced
pharyngeal pumping ability ([4]; C. elegans Parkinson's disease model, 8 days after fexofenadine treatment): restored to a level similar to that of wild-type N2
pharyngeal pumping ability [4, 6]: improves the pharyngeal pumping ability
number of TH-positive neurons on the ipsilateral side of the substantia nigra (TH-positive neurons): recovered to a level similar to that of the normal mouse control group
acrossing time [5, 7]: restored to a level similar to that of the normal mouse control group
acrossing time [5, 8]: improved compared to the normal mouse control group

Source: patent US20250213545A1 (AJOU UNIVERSITY INDUSTRY-ACADEMIC COOPERATION FOUNDATION, priority 2022, published 2025)
